Data from ChEMBL document CHEMBL1949534, “Two-step bioorthogonal activity-based proteasome profiling using copper-free click reagents: a comparative study” (Bioorg Med Chem, 2012).
The source made the active and inactive calls.

Assays:
HeLa [1] = assay: Binding affinity to proteasome in human HeLa cells assessed as fluorescence at 5 uM pretreated with azido-BODIPY-epoxomicin for 2 hrs followed by 4 hrs of incubation with compound measured post washing by SDS-PAGE-based Western blot analysis
Proteasome [2] = assay: Binding affinity to proteasome in azido-BODIPY-epoxomicin treated HEK293T cell lysates at 5 uM at 37 degC after 2 hrs by SDS-PAGE-based fluorescence analysis; assay type: subcellular; details: Homo sapiens, HEK-293T
Proteasome [3] = assay: Binding affinity to proteasome in azido-BODIPY-epoxomicin treated HEK293T cell lysates at 1 to 100 uM after 1 hr by Western blot analysis with streptavidin-HRP; assay type: subcellular; details: Homo sapiens, HEK-293T
Proteasome [4] = assay: Binding affinity to proteasome in azido-BODIPY-epoxomicin treated HEK293T cell lysates at 50 to 100 uM after 1 hr by SDS-PAGE-based fluorescence analysis; assay type: subcellular; details: Homo sapiens, HEK-293T
Proteasome [5] = assay: Binding affinity to proteasome in azido-BODIPY-epoxomicin treated HEK293T cell lysates at 5 uM at 0 degC by SDS-PAGE-based fluorescence analysis; assay type: subcellular; details: Homo sapiens, HEK-293T
HeLa [6] = assay: Binding affinity to proteasome in human HeLa cells assessed as fluorescence at 100 uM pretreated with azido-BODIPY-epoxomicin for 2 hrs followed by 4 hrs of incubation with compound measured post washing by SDS-PAGE-based Western blot analysis
Proteasome [7] = assay: Binding affinity to proteasome in azido-BODIPY-epoxomicin treated HEK293T cell lysates at 50 uM at 0 degC by SDS-PAGE-based fluorescence analysis; assay type: subcellular; details: Homo sapiens, HEK-293T
Proteasome [8] = assay: Binding affinity to proteasome in azido-BODIPY-epoxomicin treated HEK293T cell lysate at 50 uM at 37 degC up to 4 hrs by SDS-PAGE-based fluorescence analysis; assay type: subcellular; details: Homo sapiens, HEK-293T
Proteasome [9] = assay: Binding affinity to proteasome in azido-BODIPY-epoxomicin treated HEK293T cell lysates at 5 uM after 1 hr by SDS-PAGE-based fluorescence analysis; assay type: subcellular; details: Homo sapiens, HEK-293T
Proteasome [10] = assay: Binding affinity to proteasome in azido-BODIPY-epoxomicin treated HEK293T cell lysates at 0.5 uM at 37 degC after 30 mins by SDS-PAGE-based fluorescence analysis; assay type: subcellular; details: Homo sapiens, HEK-293T
Proteasome [11] = assay: Binding affinity to proteasome in azido-BODIPY-epoxomicin treated HEK293T cell lysates at 0.5 uM at 0 degC by SDS-PAGE-based fluorescence analysis; assay type: subcellular; details: Homo sapiens, HEK-293T
HeLa [12] = assay: Binding affinity to proteasome in human HeLa cells assessed as fluorescence at 0.5 uM pretreated with azido-BODIPY-epoxomicin for 2 hrs followed by 4 hrs of incubation with compound measured post washing by SDS-PAGE-based Western blot analysis
Proteasome [13] = assay: Binding affinity to proteasome in azido-BODIPY-epoxomicin treated HEK293T cell lysates at 5 uM at 37 degC up to 4 hrs by SDS-PAGE-based fluorescence analysis; assay type: subcellular; details: Homo sapiens, HEK-293T

Measured: Activity

O=C(CCCC[C@@H]1SC[C@@H]2NC(=O)N[C@@H]21)NCCOCCOCCOCCNC(=O)OC[C@@H]1[C@@H]2CCC#CCC[C@@H]21
active: HeLa [1] | Proteasome [2] | Proteasome [3] | Proteasome [4] | Proteasome [5]

COC(=O)c1ccc(C(=O)NCCOCCOCCNC(=O)CCCC[C@@H]2SC[C@@H]3NC(=O)N[C@@H]32)cc1P(c1ccccc1)c1ccccc1
active: HeLa [6] | Proteasome [7] | Proteasome [8]

O=C(CCCC[C@@H]1SC[C@@H]2NC(=O)N[C@@H]21)NCCOCCOCCOCCNC(=O)OC1Cc2ccccc2C#Cc2ccccc21 (stereo partly drawn)
active: Proteasome [9] | Proteasome [10] | Proteasome [11] | Proteasome [3] | HeLa [12]

O=C(CCCC[C@@H]1SC[C@@H]2NC(=O)N[C@@H]21)NCCOCCOCCNC(=O)C1(F)C#CCCCCC1 (stereo partly drawn)
active: Proteasome [13] | HeLa [1] | Proteasome [3] | Proteasome [4] | Proteasome [5]
